# Measured values from article PMC10858199, “Amyloid-β aggregates activate peripheral monocytes in mild cognitive impairment” (Nature Communications, 2024).
# Assays:
# [1] = tested on: Aβ; assay: FDM-NTA of synthetic Aβ in PBS, QD-antibody conjugates; type: binding, human; conditions: PBS pH 7.4; detected by aducanumab biosimilar; A-Aβ value on average
# Method: QD Ab (Ab) coupling was performed using SiteClick Qdot 655 Ab Labeling Kit (no. S10453; Molecular Probes) according to manufactures instructions. In brief, Ab, either “Aducanumab biosimilar” human IgG1,κ to aggregated Aβ (cat. no. PX-TA1335, lot. no. 040721-A01, ProteoGenix), or “Isotype control” human IgG1,κ (cat.no. HG1K, lot.no. MA14OC2803, SinoBiologicals) was concentrated in Ab preparation buffer to a concentration of 2 mg/mL or above. The buffer was simultaneously changed to 0.05 M Tris, pH 7.0. Next, carbohydrates on the Ab were modified by incubation with β-galactosidase for 4 h at 37 °C. […]
# Samples for NTA were analyzed using a NanoSight NS300 system (Malvern Panalytical). The system was configured with a 405-nm laser, a high-sensitivity scientific complementary metal–oxide–semiconductor Orca Flash 2.8/Hamamatsu C11440 camera (Malvern Panalytical), a syringe pump, and for fluorescence measurements, a 650-nm long-pass filter was used. […] The videos were collected and analyzed using NanoSight software (version 3.3 and 3.4 with a concentration upgrade; Malvern). […] The camera level was set for both scattering and fluorescence mode to a maximum of 16. […] Only samples analyzed with the same detection threshold were compared. Pure protein was analyzed in PBS/EDTA with and without a 1:20,000 dilution of anti-Aβ (Aducanumab bios.) or isotype-matched Ab-QD reporters. […]
# [2] = target: T1, CR4 I-domain (Homo sapiens, UniProt P20702, I333G); assay: SPR, CR4 I domain binding to immobilized Aβ or iC3b; conditions: even at high concentrations of the CR4 I-domain (up to 10000 nM)
# T1 construct: made in house
# T1 sequence (P20702 165-339 I333G limits assumed): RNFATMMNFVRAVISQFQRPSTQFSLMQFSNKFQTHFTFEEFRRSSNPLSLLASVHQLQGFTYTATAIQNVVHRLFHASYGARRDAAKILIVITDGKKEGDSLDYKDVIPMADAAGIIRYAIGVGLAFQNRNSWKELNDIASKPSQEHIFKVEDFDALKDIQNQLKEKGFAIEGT
# Method: (§1) SPR assays were performed using CM-4 chips (cat no. 50-105-5323, Cytiva) and run in the BIAcore 3000 instrument (GE Health Care). As described, the chip surfaces were coupled with monomeric Aβ, aggregated Aβ, or iC3b using an amine-coupling chemistry method. A reference surface was prepared by coupling the surfaces with ethanolamine rather than protein. The CR3 and CR4 I domains were stabilized in the activated conformation by mutation of a C-terminal isoleucine residue to glycine and prepared as described earlier. […] The prepared solutions were injected over the surfaces; the contact time (tc) was 180 s, and the following dissociation phase time was 400 s. […] The distribution P (kd, KD) was calculated using the discretization of the equation:1 STotal=∫KDminKDmax∫koffminkoffmaxSkoff,KD,canalyte,tPkoff,KDdkoffdKD where S is the SPR signal. […] This was done through a global fit to the association and dissociation traces at the analyte concentrations (canalyte) mentioned above. The algorithm used Tikhonov regularization as described[44] at a confidence level of p = 0.95 to determine the most parsimonious distribution consistent with the data, showing only features essential to fit the data.
# [3] = tested on: CR3 (CD11b); assay: CR3 (CD11b) surface expression on iPSC-derived microglia; type: cell-based, human; conditions: Aβ 5 µg/mL, 60 min, 37 °C
# Method: (§2) For microglial differentiation, the human induced pluripotent stem cell (iPSC) line BIHi043A-XM001 was used[56]. Cells were cultured on Matrigel™ (cat. no. 356234, Corning)-coated culture plates in Essential 8™ Flex Medium (cat. no. A2858501, Gibco). The culture medium was changed daily, and cells were passaged in clusters every 3–4 days at a density of 80% using 0.5 mM EDTA/PBS. iPSCs were differentiated into microglia using the protocol described[72]. First, iPSCs were differentiated into hematopoietic progenitors (HP) using STEMdiff™ Hematopoietic Kit (cat. No. 05310, Stem Cell Technologies). On Day −1, iPSCs with a 70–80% density were passaged with ReLeSR™ (cat. no. 05872, Stem Cell Technologies) into E8 flex containing Matrigel-coated 6-well plates. Clusters of 100 cells were seeded at the desired density of 50–100 per well. At Day 0, in wells with 40–80 clusters, the E8 flex medium was replaced with 2 mL medium A. On Day 2, 1 mL of medium A was added to the well. On Day 3, the medium was removed and replaced with 2 mL Medium B. On Days 5, 7, and 9, 1 mL of medium B was added to the well. […] The adherent cells were gently washed off to increase the yield using a 5 mL serological pipette. […] On Days 13, 15, 17, 19, and 21, 1 mL of microglia differentiation medium was added to the well. […] On Days 38–42, the microglia were ready for functional studies. […]
# [4] = tested on: CR4 (CD11c); assay: CR4 (CD11c) surface expression on iPSC-derived microglia; type: cell-based, human; conditions: Aβ 5 µg/mL, 60 min, 37 °C
# Method: as §2
# [5] = target: CR3 I-domain; assay: SPR, CR3 I domain binding to immobilized Aβ or iC3b; design: species or system human; conditions: pH 7.4, 1 mM MgCl2; EVILFIT 2D distribution
# Method: as §1
# [6] = tested on: iPSC-derived microglia; assay: Lysosomal activity of iPSC-derived microglia (LysoTracker); type: cell-based, human; conditions: Aβ 5 µg/mL, 60 min, 37 °C
# Method: as §2
substance,measurement,setting,value
M-Aβ: Unaggregated and mainly monomeric synthetic human Aβ,Particles above 600 nm,[1],less than 0.5 × 10^6 particles/mL
same,Interaction with CR4 I-domain,[2],no interaction
same,CD11b (CR3) surface expression,[3],not affected
same,CD11c (CR4) surface expression,[4],KIM127 Ab did not influence the CD11c expression
same,Kd,[5],~79 µM
same,koff,[5],0.11 s⁻¹
same,Lysosomal activity of iMGs,[6],no such ability
